Experimental data as given in patent publication US9708314B2, “Heterocyclic amide compound” (NISSAN CHEMICAL INDUSTRIES, LTD., priority 2013, dated 2017).

How the values were obtained:
Type in all cases: in vivo
Monochoria vaginalis = assay: Test Example 2: herbicidal activity, application during weed generation in submerged conditions; conditions: Eighteenth Table; application herbicide amount 320 g/ha
How it was run: (§1)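 Seeds were sown together in alluvial soil kept under 4 cm of water and grown at 25 °C to 30 °C. Once plants reached the one- to two-leaf stage, the diluted emulsion was applied to the water surface at a predetermined g/ha amount, and effects were rated 0–5 after three weeks.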

[1] = tested on: Echinochloa oryzacola Vasing.; assay: as above; conditions: Eighteenth Table; application herbicide amount 320 g/ha
How it was run: as §1

Scirpus juncoides = assay: as above; conditions: Eighteenth Table; application herbicide amount 320 g/ha
How it was run: as §1

Triticum aestivum = assay: Test Example 4: effect on crop by application to foliage (diluvial soil, plastic box); conditions: for e: Application herbicide amount 320 g/ha, effect on crop
How it was run: (§2)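 Greenhouse plants (25° C. to 30° C., 14 d, diluvial soil) receive a foliar spray of water-diluted emulsifiable formulation at defined g/ha. Grading after 3 weeks uses a six-step herbicidal-ratio scale, with 4 covering 70% to <90% and 1 covering 5% to <20%.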

Zea mays = assay: as above; conditions: for b: Application herbicide amount 320 g/ha, effect on crop
How it was run: as §2

[2] = tested on: Beta vulgaris ssp. vulgaris; assay: as above; conditions: for f: Application herbicide amount 320 g/ha, effect on crop
How it was run: as §2

[3] = tested on: directly sowed Oryza sativa; assay: as above; conditions: for d: Application herbicide amount 320 g/ha, effect on crop
How it was run: as §2

Glycine max = assay: as above; conditions: for c: Application herbicide amount 320 g/ha, effect on crop
How it was run: as §2

Brassica campestris L. = assay: as above; conditions: for g: Application herbicide amount 320 g/ha, effect on crop
How it was run: as §2

Veronica persica = assay: Test Example 4: herbicidal effect by application to foliage (diluvial soil, plastic box); conditions: for R: Application herbicide amount 320 g/ha
How it was run: as §2

Setaria viridis = assay: as above; conditions: for G: Application herbicide amount 320 g/ha
How it was run: as §2

Lolium multiflorum Lam. = assay: as above; conditions: for K: Application herbicide amount 320 g/ha
How it was run: as §2

Chenopodium album = assay: as above; conditions: for O: Application herbicide amount 320 g/ha
How it was run: as §2

Abutilon theophrasti = assay: as above; conditions: for M: Application herbicide amount 320 g/ha
How it was run: as §2

Alopecurus myosuroides = assay: as above; conditions: for J: Application herbicide amount 320 g/ha
How it was run: as §2

Digitaria ciliaris = assay: as above; conditions: for F: Application herbicide amount 320 g/ha
How it was run: as §2

Avena fatua = assay: as above; conditions: for I: Application herbicide amount 320 g/ha
How it was run: as §2

[4] = tested on: Echinochloa crus-galli var. crus-galli; assay: as above; conditions: for H: Application herbicide amount 320 g/ha
How it was run: as §2

Apera spica-venti. = assay: as above; conditions: for L: Application herbicide amount 320 g/ha
How it was run: as §2

Galium spurium = assay: as above; conditions: for Q: Application herbicide amount 320 g/ha
How it was run: as §2

[5] = application to foliage, application herbicide amount 320 g/ha

Compound	C (Monochoria vaginalis) herbicidal ratio grade (Monochoria vaginalis)	A (Echinochloa oryzicola Vasing.) herbicidal ratio grade [1]	B (Scirpus juncoides) herbicidal ratio grade (Scirpus juncoides)	e (Triticum aestivum)	b (Zea mays)	f [2]	d [3]	c (Glycine max)	g (Brassica campestris L.)	R (Veronica persica)	G (Setaria viridis)	K (Lolium multiflorum Lam.)	O (Chenopodium album)	M (Abutilon theophrasti)	J (Alopecurus myosuroides)	F (Digitaria ciliaris)	I (Avena fatua)	H [4]	L (Apera spica-venti.)	Q (Galium spurium)	also measured
C#CCSc1nnc2c(C(=O)Nc3nnc(C)o3)ccc(C(F)(F)F)n12 [1-065]	2 (Herbicidal ratio of 20% or more and less than 40%)	1 (Herbicidal ratio of 5% or more and less than 20%)	2 (Herbicidal ratio of 20% or more and less than 40%)	0 (Herbicidal ratio of 5% or less (almost no effect))	0 (Herbicidal ratio of 5% or less (almost no effect))	4 (Herbicidal ratio of 70% or more and less than 90%)	3 (Herbicidal ratio of 40% or more and less than 70%)	0 (Herbicidal ratio of 5% or less (almost no effect))	2 (Herbicidal ratio of 20% or more and less than 40%)	3 (Herbicidal ratio of 40% or more and less than 70%)	1 (Herbicidal ratio of 5% or more and less than 20%)	0 (Herbicidal ratio of 5% or less (almost no effect))	5 (Herbicidal ratio of 90% or more (almost completely withered))	3 (Herbicidal ratio of 40% or more and less than 70%)	0 (Herbicidal ratio of 5% or less (almost no effect))	4 (Herbicidal ratio of 70% or more and less than 90%)	1 (Herbicidal ratio of 5% or more and less than 20%)	1 (Herbicidal ratio of 5% or more and less than 20%)	0 (Herbicidal ratio of 5% or less (almost no effect))	0 (Herbicidal ratio of 5% or less (almost no effect))	–
CC(C)Sc1nnc2c(C(=O)Nc3nnco3)ccc(C(F)(F)F)n12 [1-091]	5 (Herbicidal ratio of 90% or more (almost completely withered))	5 (Herbicidal ratio of 90% or more (almost completely withered))	5 (Herbicidal ratio of 90% or more (almost completely withered))	3 (Herbicidal ratio of 40% or more and less than 70%)	0 (Herbicidal ratio of 5% or less (almost no effect))	5 (Herbicidal ratio of 90% or more (almost completely withered))	4 (Herbicidal ratio of 70% or more and less than 90%)	2 (Herbicidal ratio of 20% or more and less than 40%)	5 (Herbicidal ratio of 90% or more (almost completely withered))	5 (Herbicidal ratio of 90% or more (almost completely withered))	5 (Herbicidal ratio of 90% or more (almost completely withered))	3 (Herbicidal ratio of 40% or more and less than 70%)	5 (Herbicidal ratio of 90% or more (almost completely withered))	5 (Herbicidal ratio of 90% or more (almost completely withered))	2 (Herbicidal ratio of 20% or more and less than 40%)	5 (Herbicidal ratio of 90% or more (almost completely withered))	4 (Herbicidal ratio of 70% or more and less than 90%)	5 (Herbicidal ratio of 90% or more (almost completely withered))	3 (Herbicidal ratio of 40% or more and less than 70%)	4 (Herbicidal ratio of 70% or more and less than 90%)	–
Cc1nnc(NC(=O)c2ccc(C(F)(F)F)n3c(CC[S+](C)[O-])nnc23)o1 (centres unmarked) [1-084]	0 (Herbicidal ratio of 5% or less (almost no effect))	2 (Herbicidal ratio of 20% or more and less than 40%)	1 (Herbicidal ratio of 5% or more and less than 20%)	0 (Herbicidal ratio of 5% or less (almost no effect))	3 (Herbicidal ratio of 40% or more and less than 70%)	4 (Herbicidal ratio of 70% or more and less than 90%)	4 (Herbicidal ratio of 70% or more and less than 90%)	1 (Herbicidal ratio of 5% or more and less than 20%)	4 (Herbicidal ratio of 70% or more and less than 90%)	5 (Herbicidal ratio of 90% or more (almost completely withered))	5 (Herbicidal ratio of 90% or more (almost completely withered))	0 (Herbicidal ratio of 5% or less (almost no effect))	5 (Herbicidal ratio of 90% or more (almost completely withered))	5 (Herbicidal ratio of 90% or more (almost completely withered))	0 (Herbicidal ratio of 5% or less (almost no effect))	5 (Herbicidal ratio of 90% or more (almost completely withered))	3 (Herbicidal ratio of 40% or more and less than 70%)	5 (Herbicidal ratio of 90% or more (almost completely withered))	0 (Herbicidal ratio of 5% or less (almost no effect))	4 (Herbicidal ratio of 70% or more and less than 90%)	–
Cc1nnc(NC(=O)c2ccc(C(F)(F)F)n3c(-c4ccc(Cl)cc4)nnc23)o1 [1-017]	0 (Herbicidal ratio of 5% or less (almost no effect))	2 (Herbicidal ratio of 20% or more and less than 40%)	2 (Herbicidal ratio of 20% or more and less than 40%)	–	–	–	–	–	–	–	–	–	–	–	–	–	–	–	–	–	e (Triticum aestivum) effect on crop (Triticum aestivum; [5]): 0 (Herbicidal ratio of 5% or less (almost no effect)); b (Zea mays) effect on crop (Zea mays; [5]): 0 (Herbicidal ratio of 5% or less (almost no effect)); f (Beta vulgaris ssp. vulgaris) effect on crop [2, 5]: 5 (Herbicidal ratio of 90% or more (almost completely withered)); d (directly sowed Oryza sativa) effect on crop [3, 5]: 3 (Herbicidal ratio of 40% or more and less than 70%); c (Glycine max) effect on crop (Glycine max; [5]): 0 (Herbicidal ratio of 5% or less (almost no effect)); g (Brassica campestris L.) effect on crop (Brassica campestris L.; [5]): 3 (Herbicidal ratio of 40% or more and less than 70%); R (Veronica persica) herbicidal effect (Veronica persica; [5]): 4 (Herbicidal ratio of 70% or more and less than 90%); G (Setaria viridis) herbicidal effect (Setaria viridis; [5]): 0 (Herbicidal ratio of 5% or less (almost no effect)); K (Lolium multiflorum Lam.) herbicidal effect (Lolium multiflorum Lam.; [5]): 0 (Herbicidal ratio of 5% or less (almost no effect)); O (Chenopodium album) herbicidal effect (Chenopodium album; [5]): 5 (Herbicidal ratio of 90% or more (almost completely withered)); M (Abutilon theophrasti) herbicidal effect (Abutilon theophrasti; [5]): 5 (Herbicidal ratio of 90% or more (almost completely withered)); J (Alopecurus myosuroides) herbicidal effect (Alopecurus myosuroides; [5]): 0 (Herbicidal ratio of 5% or less (almost no effect)); F (Digitaria ciliaris) herbicidal effect (Digitaria ciliaris; [5]): 3 (Herbicidal ratio of 40% or more and less than 70%); I (Avena fatua) herbicidal effect (Avena fatua; [5]): 0 (Herbicidal ratio of 5% or less (almost no effect)); H (Echinochloa crus-galli var. crus-galli) herbicidal effect [4, 5]: 5 (Herbicidal ratio of 90% or more (almost completely withered)); L (Apera spica-venti.) herbicidal effect (Apera spica-venti.; [5]): 0 (Herbicidal ratio of 5% or less (almost no effect)); Q (Galium spurium) herbicidal effect (Galium spurium; [5]): 0 (Herbicidal ratio of 5% or less (almost no effect))
